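Briefly, cells in 96-well plates were exposed to five compound concentrations for 48 h, and endpoints were estimated by linear interpolation. GI50 marks 50% less growth. Definition used: TGI = concentration required for complete inhibition of growth.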
How the values were obtained:
Assay in all cases: NCI-60 cell line screen, 48 h
CAKI-1 renal = system: CAKI-1 renal
OVCAR-8 ovarian = system: OVCAR-8 ovarian
HCT-116 colon = system: HCT-116 colon
MOLT-4 leukemia = system: MOLT-4 leukemia
SNB-19 CNS = system: SNB-19 CNS
SK-OV-3 ovarian = system: SK-OV-3 ovarian
SK-MEL-5 melanoma = system: SK-MEL-5 melanoma
NCI-H23 lung = system: NCI-H23 lung
OVCAR-5 ovarian = system: OVCAR-5 ovarian
SNB-75 CNS = system: SNB-75 CNS

In the case of `Cc1ccc(Nc2nc(N)nc3c2ncn3C2OC(CO)C(O)C2O)cc1` (configuration not stated), the TGI (CAKI-1 renal) is reported as greater than 100 µM, the TGI (OVCAR-8 ovarian) is reported as greater than 100 µM and the TGI (HCT-116 colon) is reported as greater than 100 µM. The TGI (MOLT-4 leukemia) was greater than 100 µM, the TGI (SNB-19 CNS) was greater than 100 µM and the TGI (SK-OV-3 ovarian) was greater than 100 µM. The TGI (SK-MEL-5 melanoma) was greater than 100 µM, the TGI (NCI-H23 lung) was greater than 100 µM and the TGI (OVCAR-5 ovarian) was greater than 100 µM. For the same molecule, the TGI (SNB-75 CNS) was greater than 100 µM.

In the case of `C(=NCc1ccccc1)c1ccccc1-c1ccccc1C=NCc1ccccc1`, the TGI (CAKI-1 renal) is reported as greater than 10 µM, the TGI (OVCAR-8 ovarian) is reported as greater than 10 µM and the TGI (HCT-116 colon) is reported as greater than 10 µM. It also gave a TGI (MOLT-4 leukemia) greater than 10 µM, a TGI (SNB-19 CNS) greater than 10 µM and a TGI (SK-OV-3 ovarian) greater than 10 µM. The TGI (SK-MEL-5 melanoma) was greater than 10 µM, the TGI (NCI-H23 lung) was greater than 10 µM and the TGI (OVCAR-5 ovarian) was greater than 10 µM. It also gave a TGI (SNB-75 CNS) greater than 10 µM.

`N=C(N)c1csc([C@@H]2O[C@H](CO)[C@@H](O)[C@H]2O)n1` was tested, and the TGI (CAKI-1 renal) was greater than 100 µM, the TGI (OVCAR-8 ovarian) was greater than 100 µM and the TGI (HCT-116 colon) was greater than 100 µM. It also gave a TGI (MOLT-4 leukemia) greater than 100 µM, a TGI (SNB-19 CNS) greater than 100 µM and a TGI (SK-OV-3 ovarian) greater than 100 µM. It also gave a TGI (SK-MEL-5 melanoma) greater than 100 µM, a TGI (NCI-H23 lung) greater than 100 µM and a TGI (SNB-75 CNS) greater than 100 µM.

`CC(C)(C)[Si](C)(C)OCC1CCC(n2cnc3c(N)ncnc32)O1` (configuration not stated) was tested, and the TGI (CAKI-1 renal) was greater than 100 µM, the TGI (OVCAR-8 ovarian) was greater than 100 µM and the TGI (HCT-116 colon) was greater than 100 µM. It also gave a TGI (MOLT-4 leukemia) greater than 100 µM, a TGI (SNB-19 CNS) greater than 100 µM and a TGI (SK-OV-3 ovarian) greater than 100 µM. The TGI (SK-MEL-5 melanoma) was 34.4 µM, the TGI (NCI-H23 lung) was greater than 100 µM and the TGI (OVCAR-5 ovarian) was greater than 100 µM. The TGI (SNB-75 CNS) was greater than 100 µM.

With `Cc1cccc2[s+]snc12` the TGI (CAKI-1 renal) was greater than 100 µM, the TGI (OVCAR-8 ovarian) was greater than 63.7 µM and the TGI (HCT-116 colon) was greater than 100 µM. It also gave a TGI (MOLT-4 leukemia) greater than 65.2 µM, a TGI (SNB-19 CNS) greater than 100 µM and a TGI (SK-OV-3 ovarian) greater than 100 µM. For the same molecule, the TGI (SK-MEL-5 melanoma) was greater than 100 µM, the TGI (NCI-H23 lung) was greater than 100 µM and the TGI (OVCAR-5 ovarian) was greater than 100 µM. For the same molecule, the TGI (SNB-75 CNS) was greater than 100 µM.

`COC(=O)c1ccc(N=NN(C)COc2ccc([N+](=O)[O-])cc2)cc1` was tested, and the TGI (CAKI-1 renal) was greater than 100 µM, the TGI (OVCAR-8 ovarian) was greater than 100 µM and the TGI (HCT-116 colon) was greater than 100 µM. It also gave a TGI (MOLT-4 leukemia) greater than 100 µM, a TGI (SNB-19 CNS) greater than 100 µM and a TGI (SK-OV-3 ovarian) greater than 100 µM. It also gave a TGI (SK-MEL-5 melanoma) greater than 100 µM, a TGI (NCI-H23 lung) greater than 100 µM and a TGI (OVCAR-5 ovarian) greater than 100 µM. It also gave a TGI (SNB-75 CNS) greater than 100 µM.

In the case of `O=C(O)C1Cc2c([nH]c3ccccc23)C=N1` (configuration not stated), the TGI (CAKI-1 renal) is reported as greater than 100 µM, the TGI (OVCAR-8 ovarian) is reported as greater than 100 µM and the TGI (HCT-116 colon) is reported as greater than 100 µM. The TGI (MOLT-4 leukemia) was greater than 100 µM, the TGI (SNB-19 CNS) was greater than 100 µM and the TGI (SK-OV-3 ovarian) was greater than 100 µM. For the same molecule, the TGI (SK-MEL-5 melanoma) was greater than 100 µM, the TGI (NCI-H23 lung) was greater than 100 µM and the TGI (OVCAR-5 ovarian) was greater than 100 µM. For the same molecule, the TGI (SNB-75 CNS) was greater than 100 µM.

With `O=C1c2ccccc2-c2ccc(N=Nc3c(O)ccc4ccccc34)cc21` the TGI (CAKI-1 renal) was greater than 100 µM, the TGI (OVCAR-8 ovarian) was greater than 100 µM and the TGI (HCT-116 colon) was greater than 100 µM. The TGI (MOLT-4 leukemia) was greater than 100 µM, the TGI (SNB-19 CNS) was greater than 100 µM and the TGI (SK-OV-3 ovarian) was greater than 100 µM. It also gave a TGI (SK-MEL-5 melanoma) greater than 100 µM, a TGI (NCI-H23 lung) greater than 100 µM and a TGI (OVCAR-5 ovarian) greater than 100 µM. For the same molecule, the TGI (SNB-75 CNS) was greater than 100 µM.

`COc1cc(C2=C(C#N)C(N)OC3=C2COc2ccccc23)cc(OC)c1OC` (configuration not stated) gave a TGI (HCT-116 colon) of 43.5 µM, a TGI (MOLT-4 leukemia) greater than 100 µM and a TGI (SNB-19 CNS) of 30.6 µM. For the same molecule, the TGI (SK-OV-3 ovarian) was 39.3 µM, the TGI (SK-MEL-5 melanoma) was greater than 100 µM and the TGI (NCI-H23 lung) was greater than 100 µM. For the same molecule, the TGI (OVCAR-5 ovarian) was greater than 100 µM.

`C/C(=N/O)c1cccc(Nc2nc3ccc(Cl)cc3c3[nH]c4ccccc4c23)c1` gave a TGI (CAKI-1 renal) of 6.11 µM, a TGI (OVCAR-8 ovarian) of 7.77 µM and a TGI (HCT-116 colon) of 2.66 µM. The TGI (MOLT-4 leukemia) was 5.97 µM, the TGI (SNB-19 CNS) was 12 µM and the TGI (SK-OV-3 ovarian) was 13.6 µM. It also gave a TGI (SK-MEL-5 melanoma) of 2.56 µM, a TGI (NCI-H23 lung) of 4.24 µM and a TGI (OVCAR-5 ovarian) of 6.83 µM. For the same molecule, the TGI (SNB-75 CNS) was 3.36 µM.

`c1cn2cc(-c3ccc4ncn(C5CCCCC5)c4c3)nc(-c3ccc4c(c3)ncn4C3CCCCC3)c2n1` showed a GI50 (CAKI-1 renal) of 1.46 µM, a TGI (CAKI-1 renal) of 2.95 µM and a GI50 (OVCAR-8 ovarian) of 2.55 µM. It also gave a TGI (OVCAR-8 ovarian) of 9.49 µM, a GI50 (MOLT-4 leukemia) of 1.64 µM and a TGI (MOLT-4 leukemia) of 5.22 µM. The GI50 (SNB-19 CNS) was 2.11 µM, the TGI (SNB-19 CNS) was 4.95 µM and the GI50 (SK-OV-3 ovarian) was 2.27 µM. For the same molecule, the TGI (SK-OV-3 ovarian) was 4.1 µM, the GI50 (SK-MEL-5 melanoma) was 1.49 µM and the TGI (SK-MEL-5 melanoma) was 2.83 µM. For the same molecule, the GI50 (SNB-75 CNS) was 1.39 µM and the TGI (SNB-75 CNS) was 3.07 µM.

Molecule `CC12CCC(C(=O)N3CC=CCC3)(OC1=O)C2(C)C` (configuration not stated) has a TGI (CAKI-1 renal) greater than 100 µM, a TGI (OVCAR-8 ovarian) greater than 100 µM and a TGI (HCT-116 colon) greater than 100 µM. It also gave a TGI (MOLT-4 leukemia) greater than 100 µM, a TGI (SNB-19 CNS) greater than 100 µM and a TGI (SK-OV-3 ovarian) greater than 100 µM. It also gave a TGI (SK-MEL-5 melanoma) greater than 100 µM, a TGI (NCI-H23 lung) greater than 100 µM and a TGI (OVCAR-5 ovarian) greater than 100 µM. For the same molecule, the TGI (SNB-75 CNS) was greater than 100 µM.

Work on `CCC(=O)NC(Nc1ccc(O)cc1)(C(F)(F)F)C(F)(F)F` yielded a TGI (HCT-116 colon) greater than 100 µM, a TGI (MOLT-4 leukemia) greater than 100 µM and a TGI (SNB-19 CNS) greater than 100 µM. For the same molecule, the TGI (SK-OV-3 ovarian) was greater than 100 µM, the TGI (NCI-H23 lung) was greater than 100 µM and the TGI (OVCAR-5 ovarian) was greater than 100 µM. The TGI (SNB-75 CNS) was greater than 100 µM.

In the case of `O=[N+]([O-])c1ccc(Nc2nc3ccccc3s2)cc1`, the TGI (CAKI-1 renal) is reported as greater than 100 µM, the TGI (OVCAR-8 ovarian) is reported as greater than 100 µM and the TGI (MOLT-4 leukemia) is reported as 30.3 µM. For the same molecule, the TGI (SNB-19 CNS) was greater than 100 µM, the TGI (SK-MEL-5 melanoma) was 56.7 µM and the TGI (NCI-H23 lung) was 34.5 µM. The TGI (OVCAR-5 ovarian) was 84.6 µM.

`Nc1ccc2c3c(n(CCCCl)c(=O)c2c1)-c1cc2c(cc1C3=O)OCO2` gave a GI50 (CAKI-1 renal) of 1.03 µM, a TGI (CAKI-1 renal) greater than 100 µM and a GI50 (OVCAR-8 ovarian) greater than 100 µM. For the same molecule, the TGI (OVCAR-8 ovarian) was greater than 100 µM, the GI50 (MOLT-4 leukemia) was 2.14 µM and the TGI (MOLT-4 leukemia) was greater than 100 µM. For the same molecule, the GI50 (SNB-19 CNS) was greater than 100 µM, the TGI (SNB-19 CNS) was greater than 100 µM and the GI50 (SK-OV-3 ovarian) was greater than 100 µM. For the same molecule, the TGI (SK-OV-3 ovarian) was greater than 100 µM, the GI50 (SK-MEL-5 melanoma) was 0.12 µM and the TGI (SK-MEL-5 melanoma) was 0.714 µM. The GI50 (NCI-H23 lung) was 0.562 µM, the TGI (NCI-H23 lung) was 25.8 µM and the GI50 (OVCAR-5 ovarian) was greater than 100 µM. The TGI (OVCAR-5 ovarian) was greater than 100 µM, the GI50 (SNB-75 CNS) was greater than 100 µM and the TGI (SNB-75 CNS) was greater than 100 µM.

`O=C1C(=O)c2ccccc2C(O)=C1CN(CCCl)CCCl` showed a TGI (CAKI-1 renal) greater than 100 µM, a TGI (OVCAR-8 ovarian) greater than 100 µM and a TGI (HCT-116 colon) greater than 100 µM. For the same molecule, the TGI (MOLT-4 leukemia) was greater than 100 µM, the TGI (SNB-19 CNS) was greater than 100 µM and the TGI (SK-OV-3 ovarian) was greater than 100 µM. It also gave a TGI (SK-MEL-5 melanoma) greater than 100 µM, a TGI (NCI-H23 lung) greater than 100 µM and a TGI (OVCAR-5 ovarian) greater than 100 µM. For the same molecule, the TGI (SNB-75 CNS) was greater than 100 µM.

`COC1CC(OC2CCC3(C)C(CCC45CCC(C6=CC(=O)OC6)C(C)(CCC43)C5=O)C2)OC(C)C1O` (configuration not stated) was tested, and the TGI (CAKI-1 renal) was 80.1 µM, the TGI (OVCAR-8 ovarian) was greater than 100 µM and the TGI (HCT-116 colon) was greater than 100 µM. The TGI (MOLT-4 leukemia) was 65.7 µM, the TGI (SNB-19 CNS) was 63.6 µM and the TGI (SK-OV-3 ovarian) was greater than 100 µM. The TGI (SK-MEL-5 melanoma) was 41.9 µM, the TGI (NCI-H23 lung) was 48.3 µM and the TGI (OVCAR-5 ovarian) was greater than 100 µM. The TGI (SNB-75 CNS) was greater than 100 µM.

— PubChem BioAssay (NCI)
